Experimental findings from patent publication US9770026B2, “Substituted pyrimidine compound and uses thereof” (Shenyang Sinochem Agrochemicals R&D Co., Ltd., priority 2012, dated 2017) are described below.

SMILES strings stand for the structures.

One test has as its system cucumber downy mildew. As to the kind of experiment: protectant activity in vivo against cucumber downy mildew. Conditions: protectant activity; for pest or weed control at 25 µg/mL: read-out: control effect against cucumber downy mildew (%), 25 mg/L; for pest or weed control at 50 µg/mL: read-out: control effect against cucumber downy mildew (%), 50 mg/L; for pest or weed control at 100 µg/mL: read-out: control effect against cucumber downy mildew (%), 100 mg/L; for pest or weed control at 400 µg/mL: read-out: control effect against cucumber downy mildew (%), 400 mg/L.

Another test relates to wheat powdery mildew. As to the kind of experiment: protectant activity in vivo against wheat powdery mildew. The following applies: for control effect against wheat powdery mildew (%) / pest or weed control at 6.25 µg/mL / pest or weed control at 25 µg/mL / pest or weed control at 100 µg/mL / pest or weed control at 400 µg/mL: protectant activity; for pest or weed control at 6.25 µg/mL / pest or weed control at 25 µg/mL / pest or weed control at 100 µg/mL / pest or weed control at 400 µg/mL: Triticum aestivum, 168 h; for pest or weed control at 6.25 µg/mL: read-out: control effect against wheat powdery mildew (%), 6.25 mg/L; for pest or weed control at 25 µg/mL: read-out: control effect against wheat powdery mildew (%), 25 mg/L; for pest or weed control at 100 µg/mL: read-out: control effect against wheat powdery mildew (%), 100 mg/L; for pest or weed control at 400 µg/mL: read-out: control effect against wheat powdery mildew (%), 400 mg/L; for protectant activity against wheat powdery mildew in vivo: 400 ppm.

Another test concerns corn rust. As to the kind of experiment: protectant activity in vivo against corn rust. Conditions: for pest or weed control at 6.25 µg/mL: read-out: control effect against corn rust (%), 6.25 mg/L; for pest or weed control at 25 µg/mL: read-out: control effect against corn rust (%), 25 mg/L; for pest or weed control at 100 µg/mL: read-out: control effect against corn rust (%), 100 mg/L; for pest or weed control at 400 µg/mL: read-out: control effect against corn rust (%), 400 mg/L.

Test [1] relates to Green peach aphids (Myzus Persicae Sulzer). As to the kind of experiment: bioactivity test against green peach aphid, airbrush foliar spray. In kind it is in vivo. The following applies: for control (test results against green peach aphid): death rate after 48 hrs. Summed up:
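Death rate was scored at 48 hrs, held at 25±1 C and 60±5% RH, following airbrush foliar spray (0.5 mL, 10 psi) onto cabbage leaf discs bearing about 15-30 aphids. Test solutions: compound dissolved in 1:1 acetone:methanol, brought to concentration with 0.1% tween 80 water.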

Another test concerns armyworm. As to the kind of experiment: bioactivity test against armyworm, airbrush spray. In kind it is in vivo. The following applies: for Insecticidal activity against armyworm (%) / pest or weed control at 600 µg/mL: 600 mg/L; for pest or weed control at 600 µg/mL: 72 h, read-out: Insecticidal activity against armyworm (%); for control (test results against armyworm): 600 ppm, mortality after 72 h. The protocol: (§1) Compounds were dissolved in mixed solvent (acetone:methanol=1:1), and diluted to required concentration with water containing 0.1% of tween 80.
(§2) Diamond back moth, armyworm, peach aphid and carmine spider mite were used as targets and the method of spraying by airbrush was used for determination of insecticidal biassays.
The method of spraying by airbrush: The corn leaves were made into plates of 2 cm diameter by use of punch. A test solution (0.5 ml) was sprayed by airbrush at the pressure of 0.7 kg/cm^2 to both sides of every plate. 10 Second instar larvae were put into the petri-dishes after the leaf disc air-dried and 3 replicates were set for each treatment. Then the insects were maintained in observation room (25 °C, 60˜70% R.H.). Scores were conducted and mortalities were calculated after 72 h.

In the next test the test system is Diamond back moth. As to the kind of experiment: insecticidal activity against diamond back moth, airbrush spray. In kind it is in vivo. The following applies: for pest or weed control at 600 µg/mL: 72 h; for control (test results against diamond back moth): 600 ppm, mortality after 72 hrs. On the procedure: as §1, §2
The method of spraying by airbrush: The cabbage leaves were made into plates of 2 cm diameter by use of punch. A test solution (0.5 ml) was sprayed by airbrush at the pressure of 0.7 kg/cm^2 to both sides of every plate. 10 Second instar larvae were put into the petri-dishes after the leaf disc air-dried and 3 replicates were set for each treatment. Then the insects were maintained in observation room (25° C., 60˜70% R.H.). Scores were conducted and mortalities were calculated after 72 hrs.

The subject of the next test is carmine spider mite. As to the kind of experiment: bioactivity test against carmine spider mite, airbrush spray. Type of test: in vivo. Conditions: Tetranychus cinnabarinus, 72 h, contrastive test, read-out: Insecticidal activity against carmine spider mite (% ). A digest of the protocol: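 Broadbean seedlings infested with adult mites were sprayed with compound (acetone/methanol stock diluted in 0.1% Tween 80 water) by airbrush at 0.7 kg/cm^2, 0.5 ml. Three replicates were run. Mortality was scored after 72 hrs.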

The mark [2] stands for this setting: Zea mays, 168 h, protectant activity.
Where [3] appears, read: Myzus persicae, foliar, 48 h, 10 mg/L, contrastive test, read-out: Insecticidal activity against peach aphid (%).
Where [4] appears, read: Myzus persicae, foliar, 48 h, 100 mg/L, contrastive test, read-out: Insecticidal activity against peach aphid (%).
[5] abbreviates: Myzus persicae, foliar, 48 h, 600 mg/L, contrastive test, read-out: Insecticidal activity against peach aphid (%).

As for `CCc1ncnc(NC(C)c2ccc(Oc3ccc(F)cc3)nc2)c1Cl` (stereo not shown) [CK9, reference compound], the “control effect against cucumber downy mildew (%)” value in the test with cucumber downy mildew (25 mg/L) amounted to 70%; in the test with cucumber downy mildew (50 mg/L) it was 90%; in the test on cucumber downy mildew (100 mg/L) it was 98%; in the test with cucumber downy mildew (400 mg/L), 100%. In addition, the “control effect against wheat powdery mildew (%)” value in the test with wheat powdery mildew (6.25 mg/L) is given as 0%; in the test with wheat powdery mildew (25 mg/L), 0%; in the test with wheat powdery mildew (100 mg/L) it was 0%; with wheat powdery mildew (400 mg/L) it was 100%. Further, the “control effect against corn rust (%)” value amounted to 0% in the test on corn rust (6.25 mg/L, protectant activity); 20% in the test on corn rust (25 mg/L, protectant activity); 100% with corn rust (100 mg/L, protectant activity); 100% in the test with corn rust (400 mg/L, protectant activity). The “Insecticidal activity against peach aphid (%)” value in test [1] (10 mg/L, contrastive test) came out at 23%; in test [1] (100 mg/L, contrastive test), 79%; in test [1] (600 mg/L, contrastive test), 100%. In addition, the “Insecticidal activity against armyworm (%)” value in the test with armyworm is on record as 40%. For the same compound, the figures for the “Insecticidal activity against diamond back moth (%)” value in the test with Diamond back moth (10 mg/L), in the test on Diamond back moth (100 mg/L) and with Diamond back moth (600 mg/L) were 25%, 45% and 100%, respectively.
Regarding `CCc1ncnc(NC(C)c2ccc(Oc3ccc(C(C)(C)C)cc3)nc2)c1Cl` (stereo not shown) [CK10, reference compound], the “control effect against cucumber downy mildew (%)” value with cucumber downy mildew (25 mg/L) worked out at 20%; with cucumber downy mildew (50 mg/L) it was 40%; with cucumber downy mildew (100 mg/L), 82%; in the test on cucumber downy mildew (400 mg/L) it was 100%. The “control effect against wheat powdery mildew (%)” value in the test with wheat powdery mildew (400 mg/L) turned out to be 50%. In the test on corn rust (400 mg/L, protectant activity), the “control effect against corn rust (%)” value is recorded as 50%. Moreover, the “Insecticidal activity against peach aphid (%)” value in test [1] (10 mg/L, contrastive test) is listed as 23%; in test [1] (100 mg/L, contrastive test), 91%; in test [1] (600 mg/L, contrastive test) it was 100%. In the test with armyworm, the “Insecticidal activity against armyworm (%)” value is on record as 0%. Also, in the test on Diamond back moth (600 mg/L), the “Insecticidal activity against diamond back moth (%)” value stood at 33%.
Take `Cc1ncnc(NC(C)c2ccc(Oc3ccc(C(F)(F)F)cn3)cc2)c1Cl` (stereo not shown) [CK28, reference compound]: the pest or weed control at 25 µg/mL in the test on cucumber downy mildew (Cucumis sativus, 168 h) came out at 0%; with corn rust (setting [2]) it was 100%. Also, the pest or weed control at 50 µg/mL in the test with cucumber downy mildew (Cucumis sativus, 168 h) was determined as 20%. Moreover, the pest or weed control at 100 µg/mL is 40% in the test with cucumber downy mildew (Cucumis sativus, 168 h); 100% with corn rust (setting [2]); 100% with carmine spider mite (100 mg/L); 100% in test [1] (setting [4]). Further, the pest or weed control at 400 µg/mL with cucumber downy mildew (Cucumis sativus, 168 h) is 100%; with corn rust (setting [2]) it was 100%. For the same compound, in the test with corn rust (Zea mays, 168 h, read-out: control effect against corn rust (%), 0.4 mg/L, protectant activity), the pest or weed control at 0.4 µg/mL came to 0%. Also, the pest or weed control at 1.6 µg/mL with corn rust (Zea mays, 168 h, read-out: control effect against corn rust (%), 1.6 mg/L, protectant activity) was determined as 0%. In addition, the pest or weed control at 6.25 µg/mL with corn rust (setting [2]) is 95%. The pest or weed control at 10 µg/mL was found to be 22% with carmine spider mite (10 mg/L) and 43% in test [1] (setting [3]). Besides, the pest or weed control at 600 µg/mL with carmine spider mite (600 mg/L) is 100%; in test [1] (setting [5]) it was 100%; in the test with armyworm, 29%; in the test with Diamond back moth (600 mg/L), 0%.
Take `Cc1ncnc(NC(C)c2ccc(Oc3nc(Cl)c(Cl)cc3Cl)cc2)c1Cl` (stereo not shown) [CK29, reference compound]: the pest or weed control at 25 µg/mL is 25% with cucumber downy mildew (Cucumis sativus, 168 h); 50% in the test with wheat powdery mildew; 85% in the test with corn rust (setting [2]). The pest or weed control at 50 µg/mL with cucumber downy mildew (Cucumis sativus, 168 h) is 90%. Also, the pest or weed control at 100 µg/mL turned out to be 98% in the test on cucumber downy mildew (Cucumis sativus, 168 h); 80% in the test with wheat powdery mildew; 95% in the test with corn rust (setting [2]). For the same compound, the pest or weed control at 400 µg/mL with cucumber downy mildew (Cucumis sativus, 168 h) amounted to 98%; in the test on wheat powdery mildew, 100%; with corn rust (setting [2]) it was 100%. Also, the pest or weed control at 6.25 µg/mL is 40% with wheat powdery mildew and 30% in the test with corn rust (setting [2]). In addition, the pest or weed control at 600 µg/mL turned out to be 0% in test [1] (setting [5]), 14% with armyworm and 0% in the test with Diamond back moth (600 mg/L).
Take `CCc1ncnc(NCc2ccc(Oc3ccc(C(F)(F)F)cn3)cc2)c1Cl` [CK42, reference compound]: the pest or weed control at 3.125 µg/mL with cucumber downy mildew (Cucumis sativus, 168 h, read-out: control effect against cucumber downy mildew (%), 3.125 mg/L) was 0%. In addition, the pest or weed control at 6.25 µg/mL with cucumber downy mildew (Cucumis sativus, 168 h, read-out: control effect against cucumber downy mildew (%), 6.25 mg/L) came out at 0%; in the test with wheat powdery mildew, 50%. In addition, in the test on cucumber downy mildew (Cucumis sativus, 168 h, read-out: control effect against cucumber downy mildew (%), 12.5 mg/L), the pest or weed control at 12.5 µg/mL is 0%. Further, the pest or weed control at 25 µg/mL with cucumber downy mildew (Cucumis sativus, 168 h) was 20%; in the test with wheat powdery mildew, 60%. In the test with cucumber downy mildew (Cucumis sativus, 168 h), the pest or weed control at 50 µg/mL was 100%. The pest or weed control at 100 µg/mL was found to be 100% in the test on cucumber downy mildew (Cucumis sativus, 168 h); 70% in the test with wheat powdery mildew; 67% in test [1] (setting [4]). Also, the pest or weed control at 400 µg/mL with cucumber downy mildew (Cucumis sativus, 168 h) is 100%; in the test on wheat powdery mildew, 100%; in the test with corn rust (setting [2]) it was 70%. Besides, the pest or weed control at 2.5 µg/mL in test [1] (Myzus persicae, foliar, 48 h, 2.5 mg/L, contrastive test, read-out: Insecticidal activity against peach aphid (%)) was 0%. Also, in test [1] (Myzus persicae, foliar, 48 h, 5 mg/L, contrastive test, read-out: Insecticidal activity against peach aphid (%)), the pest or weed control at 5 µg/mL worked out at 17%. Also, the pest or weed control at 10 µg/mL in test [1] (setting [3]) amounted to 20%. Also, the pest or weed control at 600 µg/mL in test [1] (setting [5]) came to 100%; in the test with armyworm, 0%; in the test on Diamond back moth (600 mg/L), 0%.
As to `COc1cc(NCCc2ccc(Oc3ncc(C(F)(F)F)cc3Cl)cc2)ncn1` [CK71, reference compound], the pest or weed control at 400 µg/mL was found to be 80% in the test with cucumber downy mildew (Cucumis sativus, 168 h); 100% in the test with wheat powdery mildew; 0% in the test with corn rust (setting [2]). In addition, the pest or weed control at 600 µg/mL in the test on armyworm worked out at 86%; with Diamond back moth (600 mg/L), 0%.
As to `Cc1ncnc(NCCc2ccc(Oc3ccc(Cl)nn3)cc2)c1Br` [Compound I-4121], the “protectant activity against wheat powdery mildew in vivo” value with wheat powdery mildew amounted to 100%. In the test on corn rust (400 ppm), the “protectant activity against corn rust in vivo” value worked out at 100%. Moreover, the “control (test results against green peach aphid)” value in test [1] (10 ppm), in test [1] (100 ppm) and in test [1] (600 ppm) was 100% in each case. Besides, the “control (test results against armyworm)” value with armyworm stood at 100%. In addition, the “control (test results against diamond back moth)” value in the test with Diamond back moth came out at 100%.
With `Cc1ncnc(NCCc2ccc(Oc3cccc(Cl)c3)nc2)c1Cl` [III-6], in the test with wheat powdery mildew, the “protectant activity against wheat powdery mildew in vivo” value is recorded as 100%. Besides, the “protectant activity against corn rust in vivo” value in the test with corn rust (100 ppm) and with corn rust (400 ppm) was 100% in each case. In addition, the “control (test results against green peach aphid)” value in test [1] (600 ppm) was 100%. Also, the “control (test results against armyworm)” value in the test on armyworm was 100%. For the same compound, the “control (test results against diamond back moth)” value in the test on Diamond back moth was determined as 100%.
